According to paper PMC5663395, “Chemical Validation of Methionyl-tRNA Synthetase as a Druggable Target in Leishmania donovani” (ACS Infectious Diseases, 2017):
Where two headings read alike, the source gives them in different places.

Experiments:
[1] = target: LdMetRS (Leishmania donovani, UniProt A0A3Q8IBX2); test: LdMetRS biochemical enzyme assay (BIOMOL Green); conditions: read-out: LdMetRS IC50
Description: LdMetRS Assay Development and Kinetic Parameter Determinations
Activity of the LdMetRS enzyme was determined by monitoring levels of pyrophosphate released during the first step of the enzymatic reaction. The pyrophosphate formed was converted to two inorganic phosphate molecules using a pyrophosphatase enzyme and levels of the resulting phosphate molecules measured using the BIOMOL® Green reagent (Enzo Life Sciences) 2.
Following optimization of the assay buffer and determination of the enzyme linearity, 384-well plate based assays were carried out at room temperature in a 50 μl reaction volume containing 30 mM Tris, pH 8.0, 140 mM NaCl, 30 mM KCl, 40 mM MgCl2, 0.01% (v/v) Brij-35, 1 mM DTT, 1 U/ml pyrophosphatase, 50 nM recombinant LdMetRS, and varying concentrations of substrates. Michaelis constants for the ATP and methionine substrates were determined in an end point assay using the above buffer and enzyme conditions. Data were fitted to the modified Michaelis-Menten equations […]
Equation 1 (Hill equation): […]
Equation 2 (High substrate inhibition Michaelis-Menten equation): […]
LdMetRS Inhibitor Studies
All test compounds were solubilized in 100% DMSO to a concentration of 10 mM. To generate IC50 data for the compounds, assay ready plates containing 10-point inhibitor curves (half-log serial dilutions) were prepared using an Echo® 550 (Labcyte).
Following preparation of the inhibitor curves, assays were carried out at room temperature in clear, flat bottom, polystyrene, 384-well plates (Greiner). Each assay was performed in a 50 μl reaction volume containing 30 mM Tris; pH 8.0, 140 mM NaCl, 30 mM KCl, 40 mM MgCl2, 0.01% (v/v) Brij-35, 1 mM DTT, 1 U/ml pyrophosphatase, 50 nM recombinant LdMetRS, 50 µM methionine and 100 µM […]
Assays were performed by adding 25 μl buffer with enzyme to assay plates (with buffer only added to ‘no enzyme’ control wells) before the reaction was initiated with the addition of a 25 μl mix containing methionine, ATP and pyrophosphatase to all wells. Following a 120 min reaction at room temperature the assay was stopped with the addition of 50 μl BIOMOL® Green. The BIOMOL® Green signal was allowed to develop for 30 min before the absorbance of each well was read at 650 nm using an EnVision multilabel plate reader (PerkinElmer Life Sciences). All liquid dispensing steps were carried out using a Thermo Scientific WellMate dispenser (Matrix).
ActivityBase from IDBS (version 8.0.5.4) was used for data processing and analysis. All IC50 curve fitting was undertaken using ActivityBase XE (version 7.7.1) from IDBS. A four-parameter logistic dose-response curve was utilized with prefit used for all four parameters.
For DDD806905 Kiapp determinations, data fitting to the Morrison equation (equation 3) was carried out using GraFit v6.0 (Erithacus Software). It should be noted that data for fitting to the Morrison equation was normalised to a ‘100 µM DDD806905’ control rather than a ‘no enzyme’ control as […]
Equation 3 (Morrison equation): […]
vi = K1 −−([ ] [ ]ET+IT+Ki)−([ ] [ ]ET+IT+i)[ ] [ ]TIE4T
LdMetRS Mode of Inhibition Studies
To establish the mode of inhibition of DDD806905, data sets (generated using the BIOMOL® Green assay platform previously described) were collected by varying both the inhibitor and substrate concentrations. Using GraFit v6.0 (Erithacus Software) each data set was individually fitted to the Michaelis-Menten equation or the modified high substrate inhibition Michaelis-Menten equation described above (equation 2), and the resulting Lineweaver-Burk plots were examined for diagnostic […]
Data sets were then globally fitted to the appropriate model (with equations 4 and 5 used for […]
If more than one model appeared possible, then data were fitted to both and examined for significance using the F-test function in GraFit.

[2] = system: L. donovani axenic amastigotes; test: Leishmania axenic amastigote viability assay; assay type: cell-based, Leishmania donovani; conditions: read-out: Leishmania Axenic Amastigote EC50
Description: (§1) carried out as described above using 5%, 10% and 20% FBS in the media. To examine the effect of the methionine concentration on the potency of DDD806905 parasites were grown in the presence of drug and in the presence (or absence) of 20-fold excess methionine (0.3 g/l). IC50 curve fitting was undertaken in GraFit version 6.0 (Erithacus Software) using a four-parameter logistic dose-response curve (equation 6), with s the slope.
(§2) Leishmania Axenic Amastigote Assay
(§3) The Leishmania axenic amastigote assay was performed using the method published in Nühs et al 15.
(§4) Leishmania Intracellular Amastigote Assay
(§5) The intramacrophage Leishmania assay was performed using a modified version of the method described in De Rycker et al 16. […]
amphotericin B was included. Controls were as follows: columns 11 and 12: DMSO, columns 23 and 24: amphotericin B (final concentration 2 µM). 350 nl of compound was pre-dispensed into 384-well sterile intermediary plates. To the intermediary plates, 35 µl of THP-1 media was added and plates were shaken for >5 min to ensure complete mixing. THP-1 cells (8,000 per well, 50 µl) were plated into black clear-bottom 384-well plates (Corning) in presence of 20 nM phorbol 12-myristate 13- […]
in a humidified incubator for 75 h. The cells were then washed with 450 µl sterile phosphate buffered saline (PBS) supplemented with 1 mM CaCl2, 0.5 mM MgCl2, 0.1% (w/v) bovine serum albumin (PBS-A) and amastigotes were added to all wells at a multiplicity of infection of 5 (40,000 amastigotes per well). After 40 min at room temperature, plates were returned to the incubator.
Amastigotes were incubated in the presence of THP-1 macrophages for 16 h. Any remaining extracellular amastigotes were subsequently removed by washing with PBS-A followed by addition of 25 µl of the compound pre-dilutions using an Ipette-pro pipetting station (FluidX). The final dilution of each compound was 200-fold. Plates were incubated for 96 h and then washed (250 µl PBS-A) and fixed (4 % (v/v) formaldehyde-PBS, 30 min, room temperature). After fixation, the wells were washed with 250 µl PBS, stained (10 µg/ml DAPI, 0.4 µg/mL HCS Cellmask Deep Red in PBS + 0.1% (v/v) Triton X-100, 30 min, room temperature) and washed with 250 µl PBS. Finally, PBS + 0.05% (v/v) thimerosal was added to the wells, the plates were sealed and imaged on a high-content microscope (GE IN Cell 2000) using a 10x objective. Image analysis was carried out with GE IN Cell Analyzer 1000 Workstation using the “Multi Target Analysis” module. For each well, i) THP-1 cell count (cytotoxicity readout) and ii) average number of amastigotes per cell (potency readout) were […]

[3] = system: L. donovani promastigotes; test: Leishmania promastigote viability assay; assay type: cell-based, Leishmania donovani; conditions: Supplementary Table 1; read-out: Leishmania Promastigote EC50
Description: After suitable sample preparation, the
In vivo Leishmaniasis Animal Model […]
administered twice daily over the same interval.
Parasite load is expressed in Leishman-
Knock-out and overexpressor generation
Leishmania Promastigote Assay
Serum shift experiments were […]
as §1, §2, §3, §4, §5
amphotericin B was included. Controls were as follows: columns 11 and 12: DMSO, columns 23 and 24: amphotericin B (final concentration 2 µM). 350 nl of compound was pre-dispensed into 384-well sterile intermediary plates. To the intermediary plates, 35 µl of THP-1 media was added and plates were shaken for >5 min to ensure complete mixing. THP-1 cells (8,000 per well, 50 µl) were plated into black clear-bottom 384-well plates (Corning) in presence of 20 nM phorbol 12-myristate 13-

[4] = system: THP-1 lysosomes; test: Lysosomotropism assay (LysoTracker Red competition); assay type: cell-based, human; conditions: PMA-differentiated THP-1 cells, 30 min
Description: calculated, both in terms of pEC50 values. MIC (minimum inhibitory concentration) values are defined as the lowest concentration tested at which maximal inhibition is reached.
THP-1 cells were differentiated in 96-well plates with PMA as described above. Following differentiation the cells were treated for 30 min with dose-response curves of test compounds in presence of 100 nM LysoTracker Red DND-99 (Thermo Fisher) and 5 µg/ml Hoechst 33342. Next cells were washed 3 times with Hanks Buffered Saline Solution (Gibco) and imaged on a Perkin Elmer Operetta system. An image analysis algorithm to measure mean Lysotracker Red DND-99 intensity per cell was developed in Columbus. Mean Intensity was normalised using a no dye control (100% effect) and DMSO treated wells stained with Lysotracker Red DND-99 (0% effect control). Dose-response curves were fitted for the test compounds using a four-parameter equation (equation 5 above) and constrained to 0 and 100% where necessary.
To measure the pKa of DDD806905, a fast UV-metric method was performed using a Sirius T3 instrument (Sirius Analytical, U.K.). The calculation of the pKa was determined using the Sirius T3 refine software (Sirius Analytical, U.K.). In brief, the UV-metric pKa method is based on measuring pH during an acid-base titration and monitoring UV absorbance shift. The ionisation curve (Bjerrum curve) was then used to determine the pH where exactly 50 % of neutral and 50 % of ionised species was present. DDD806905 must be fully dissolved throughout the titration and so the titration is set to start at the pH where DDD806905 is in its fully ionised state. The appearance of precipitate was monitored throughout the experiment by a turbidity sensing device. […] The pKas of DDD806905 was determined at the pH where there was maximal change in UV absorbance with respect to pH. […]
LogD7.4 values were quantified using a Sirius T3 instrument (Sirius Analytical, U.K.). […] The instrument software calculated the pH of each data point using mass and charge balance equations and then fitted this theoretical data to the experimental data. […]

LdMetRS, sequence (A0A3Q8IBX2 entry or part of it): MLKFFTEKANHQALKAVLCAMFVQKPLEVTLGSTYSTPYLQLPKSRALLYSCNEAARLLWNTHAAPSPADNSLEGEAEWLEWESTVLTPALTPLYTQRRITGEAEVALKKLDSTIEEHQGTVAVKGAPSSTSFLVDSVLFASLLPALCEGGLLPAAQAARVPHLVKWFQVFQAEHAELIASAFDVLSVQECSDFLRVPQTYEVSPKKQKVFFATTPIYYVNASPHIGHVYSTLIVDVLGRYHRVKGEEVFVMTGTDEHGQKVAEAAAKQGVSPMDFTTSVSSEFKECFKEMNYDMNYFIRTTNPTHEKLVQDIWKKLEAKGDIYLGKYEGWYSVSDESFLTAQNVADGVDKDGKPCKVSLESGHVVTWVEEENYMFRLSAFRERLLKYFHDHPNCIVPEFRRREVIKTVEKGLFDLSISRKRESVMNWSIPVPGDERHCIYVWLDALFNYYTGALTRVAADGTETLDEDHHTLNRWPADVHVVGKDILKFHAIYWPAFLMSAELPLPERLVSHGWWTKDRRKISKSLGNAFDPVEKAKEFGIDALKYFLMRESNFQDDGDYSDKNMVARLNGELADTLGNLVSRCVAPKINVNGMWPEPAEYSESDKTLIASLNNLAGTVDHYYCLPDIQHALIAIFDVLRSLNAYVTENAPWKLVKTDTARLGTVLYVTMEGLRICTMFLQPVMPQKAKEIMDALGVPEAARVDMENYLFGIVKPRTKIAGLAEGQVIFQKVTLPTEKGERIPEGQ

Row | SMILES | IC50 ([1]; Table 1) | EC50 ([2]; Leishmania donovani, Table 1) | IC50 ([1]; Supplementary Table 1) | EC50 [3] | EC50 ([2]; Supplementary Table 1) | competition with lysotracker red accumulation in THP-1 lysosomes [4]
1 | O=C(NCCCNc1nc(=O)c2ccccc2[nH]1)c1cc2c(Cl)cc(Cl)cc2[nH]1 [Compound 25] | 3.3 µM | > 50 µM |  |  |  | 
2 | O=c1nc(NCCCNCc2cc(Cl)cc(Cl)c2)[nH]c2ccccc12 [Compound 26] | 0.74 µM | 38 µM |  |  |  | 
3 | O=C(CCNc1nc(=O)c2ccccc2[nH]1)NCc1cc(Cl)cc(Cl)c1 [Compound 27] | 2.8 µM | 22 µM |  |  |  | 
4 | O=c1nc(OCCCNCc2cc3c(Cl)cc(Cl)cc3[nH]2)[nH]c2ccccc12 [Compound 31] | 22 µM | > 50 µM |  |  |  | 
5 | Clc1ccc(Cl)c2[nH]c(CNCCCNc3nc4ccccc4[nH]3)cc12 [Compound 3] |  |  | 69 µM | 7.1 µM | > 50 µM | 
6 | Cc1c(CNCCCNc2nc3ccccc3[nH]2)[nH]c2cc(Cl)cc(Cl)c12 [Compound 4] |  |  | 2.8 µM | 1.3 µM | 38 µM | 
7 | CCOc1c(Cl)cc(Cl)cc1CNCCCNc1nc2ccccc2[nH]1 [Compound 15] |  |  | 5.4 µM | 4.1 µM | > 50 µM | 
8 | OCCn1c(CNCCCNc2nc3ccccc3[nH]2)cc2c(Cl)cc(Cl)cc21 [Compound 17] |  |  | 0.38 µM | 0.87 µM | 19 µM | 
9 | Brc1cc(Br)c2c(c1)C(NCCCNc1nc3ncccc3[nH]1)CCN2 (stereo not shown) [Compound 11] |  |  | 0.17 µM | 0.54 µM | 6.2 µM | 
10 | CCOc1c(Br)cc(Cl)cc1CNCCCNc1nc2ccccc2[nH]1 [Compound 16] |  |  | 5.9 µM | 4.9 µM | > 50 µM | 
11 | O=c1nc(NCCCCCc2cc(Cl)cc(Cl)c2)[nH]c2ccccc12 [Compound 29] | > 100 µM | > 50 µM |  |  |  | 
12 | COc1cc(C(F)(F)F)c2cc(CNCCCNc3nc4ccccc4[nH]3)[nH]c2c1 [Compound 10] |  |  | 4.8 µM | 6.5 µM | > 50 µM | 
13 | CCN(CC)CCCC(C)Nc1ccnc2cc(Cl)ccc12 (stereo not shown) [chloroquine, reference compound] |  |  |  |  |  | did compete with lysotracker red accumulation
14 | CN(CCCNc1nc(=O)c2ccccc2[nH]1)Cc1cc2c(Cl)cc(Cl)cc2[nH]1 [Compound 30] | 0.03 µM | 18 µM |  |  |  | 
15 | Cc1cc(C)c2cc(CNCCCNc3nc4ccccc4[nH]3)[nH]c2c1 [Compound 12] |  |  | 5.6 µM | 9.5 µM | > 50 µM | 
16 | COc1cc(C(F)(F)F)cc2[nH]c(CNCCCNc3nc4ccccc4[nH]3)cc12 [Compound 9] |  |  | > 100 µM | 7.8 µM | > 50 µM | 
17 | CCOc1c(CNCCCNc2nc3ccccc3[nH]2)cc(Br)cc1OC [Compound 13] |  |  | 37 µM | 19 µM | > 50 µM | 
18 | COc1cccc2[nH]c(NCCCNCc3cc(Br)cc(Br)c3)nc12 [Compound 7] |  |  | 79 µM | 19 µM | > 50 µM | 
19 | CCOc1c(Br)cc(C)cc1CNCCCNc1nc2ccccc2[nH]1 [Compound 14] |  |  | 12 µM | 7.6 µM | > 50 µM | 
20 | OCc1c(Cl)cc(Cl)cc1CNCCCNc1nc2ccccc2[nH]1 [Compound 8] |  |  | 47 µM | 33 µM | > 50 µM | 
21 | FC(F)(F)c1cc(C(F)(F)F)c2cc(CNCCCNc3nc4ccccc4[nH]3)[nH]c2c1 [Compound 5] |  |  | 46 µM | 6.2 µM | 29 µM | 
